Reference: patent publication US20230094922A1, “METHODS OF THERAPEUTIC PROGNOSTICATION” (GENETIKAPLUS LTD., priority 2020, published 2023)

Assays:
[1] = tested on: iPSC-derived cortical neurons; assay: Dendritic spine length analysis, confocal imaging; format: cell-based, human
Method: FIG. 8. Average dendritic spine length. Dendritic spine length was analyzed using confocal microscopy in samples treated with Bupropion. For imaging of dendritic spines, images were acquired using the Nikon Confocal A1R with a 60× objective and a 2× digital zoom in z-stacks. Analysis was performed using Neurolucida software. FIGS. 9A-9B. Average dendritic spine length in specific spine types. […] For imaging of dendritic spines, images were acquired using the Nikon Confocal A1R with a 60× objective and a 2× digital zoom in z-stacks. Analysis was performed using Neurolucida software. iPSC differentiation into neurons-iPSCs were seeded at a density of 3×10^6 cells/well on a hESC-qualified Matrigel pre-coated 6-well plate and incubated at 37° C., 5% CO2 overnight. Differentiation was initiated the following day (day 0) after verifying that 100% confluency was reached. Differentiation media was added daily according to the following order: […]7 (day 15 onward) similar to a previously published protocol developed by for rapid differentiation to cortical neurons. The components of the described media, Q1-7, are provided in Appendix 1. Cells were assessed for differentiation efficiency and cell death on a daily basis. On day 9, differentiated neurons were re-plated on either 96-well plates (destined for staining) or 12-well plates (destined for RNA extraction) that were coated with 15 μg/mL Poly-ornithine diluted in PBS (overnight incubation at 37° C.), followed by 1 μg/mL Laminin and 2 μg/mL Fibronectin diluted in PBS (overnight incubation at 37° C.): Neurons were first rinsed with pre-warmed PBS and 1 ml/well of Accutase was added for 35 minutes at 37° C., 5% CO2. DNAse1 (0.5 mg/mL) was then added for 10 additional minutes. 3 ml of pre-warmed Neurobasal media was added to each well and neurons were gently collected using a 5 ml […]. Wells were then verified for the presence of any remaining neurons. Neurons were spun down and resuspended in Q6 media. Neurons were seeded at a density of 150,000 cells/cm^2 placed back at 37° C. Following four hours of incubation, media was changed to Q6 media (150 μl per 96-well and 1 ml per 12-well). […] For dendritic arborization analysis, pre/post-synaptic markers and colocalization analysis; α-Syn, PSD95 and MAP2 primary antibodies were used. Following washes, fluorophore-coupled secondary antibodies were incubated in the blocking solution for 1 hour at room temperature. The cells were counter-stained with 4',6-diamidino-2-phenylindole (DAPI) for nuclei detection for 15 minutes at room temperature followed by washes with PBS. […] Neuronal and synaptic morphology was assessed using the Neurolucida software, pre- and post-synaptic marker analysis was performed using CellProfiler and total dendritic length was measured using Fiji software.

[2] = tested on: iPSC-derived cortical neurons; assay: Dendritic arborization analysis (dendrite length), confocal imaging; format: cell-based, human
Method: FIG. 7. Analysis of dendritic arborization. Dendritic arborization was analyzed using confocal microscopy in samples treated with Bupropion. Images for dendritic arborization were acquired with a 20× objective in z-stacks and analyzed using Neurolucida software. iPSC differentiation into neurons-iPSCs were seeded at a density of 3×10^6 cells/well on a hESC-qualified Matrigel pre-coated 6-well plate and incubated at 37° C., 5% CO2 overnight. Differentiation was initiated the following day (day 0) after verifying that 100% confluency was reached. Differentiation media was added daily according to the following order: […]7 (day 15 onward) similar to a previously published protocol developed by for rapid differentiation to cortical neurons. The components of the described media, Q1-7, are provided in Appendix 1. Cells were assessed for differentiation efficiency and cell death on a daily basis. […] Neuronal and synaptic morphology was assessed using the Neurolucida software, pre- and post-synaptic marker analysis was performed using CellProfiler and total dendritic length was measured using Fiji software.

[3] = cells derived from non-responders

CC(NC(C)(C)C)C(=O)c1cccc(Cl)c1 (stereo not drawn) [Bupropion, 3-Chloro-N-tert-butyl-β-keto-α-methylphenethylamin]
total dendritic spine length (average), after treatment [1, 3]: no difference
total dendritic spine length (average), after treatment ([1]; cells derived from responders): significant increase
specific spine types (mushroom, stubby, filopodia, thin), after treatment ([1]; cells from non-responders): increase in the number of stubby spines
specific spine types (mushroom, stubby, filopodia, thin), after treatment ([1]; responder's cells): significant increase in the number of mushroom, stubby and thin spines
dendritic length, effect of treatment (significant decrease or not) [2, 3]: did not
dendritic length, effect of treatment ([2]; neurons derived from responders): significant decrease in dendritic length
